Assays:
[1] = biological target: dopamine transporter (DAT) (Mus musculus, UniProt Q61327); test: DAT binding, [125I]RTI-121, mouse striatal membranes; details: for inhibition at 10 µM: read-out: DAT % Inh.
[2] = biological target: serotonin transporter (SERT) (Mus musculus, UniProt Q60857); test: SERT binding, [3H]paroxetine, mouse whole brain membranes; details: ratio of DAT and SERT Ki
[3] = biological target: vesicular acetylcholine transporter; details: read-out: vesicular acetylcholine transporter Ki; secondary interaction; cited from earlier work
[4] = tested on: norepinephrine transporter; details: cited from earlier work
σ1 receptors = details: read-out: apparent affinity for σ1 receptors; more recent determination; cited from earlier work

dopamine transporter (DAT), sequence (Q61327 whole entry): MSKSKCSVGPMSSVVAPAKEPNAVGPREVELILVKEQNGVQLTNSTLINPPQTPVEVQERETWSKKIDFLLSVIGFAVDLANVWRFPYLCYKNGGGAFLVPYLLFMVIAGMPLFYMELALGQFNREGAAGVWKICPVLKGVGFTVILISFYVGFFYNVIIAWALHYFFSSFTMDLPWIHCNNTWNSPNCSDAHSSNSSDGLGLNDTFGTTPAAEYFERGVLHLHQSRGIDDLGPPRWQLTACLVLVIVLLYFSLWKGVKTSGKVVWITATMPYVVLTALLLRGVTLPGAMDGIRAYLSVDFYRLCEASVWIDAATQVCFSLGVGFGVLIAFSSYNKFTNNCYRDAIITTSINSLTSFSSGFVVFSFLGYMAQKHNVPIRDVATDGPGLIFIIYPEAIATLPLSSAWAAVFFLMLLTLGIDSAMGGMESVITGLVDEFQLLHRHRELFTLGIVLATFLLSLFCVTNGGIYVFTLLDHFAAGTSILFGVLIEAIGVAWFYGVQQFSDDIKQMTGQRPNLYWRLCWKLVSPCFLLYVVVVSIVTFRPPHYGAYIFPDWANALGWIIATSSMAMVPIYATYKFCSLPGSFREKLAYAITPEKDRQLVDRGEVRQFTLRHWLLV
serotonin transporter (SERT), sequence (Q60857 whole entry): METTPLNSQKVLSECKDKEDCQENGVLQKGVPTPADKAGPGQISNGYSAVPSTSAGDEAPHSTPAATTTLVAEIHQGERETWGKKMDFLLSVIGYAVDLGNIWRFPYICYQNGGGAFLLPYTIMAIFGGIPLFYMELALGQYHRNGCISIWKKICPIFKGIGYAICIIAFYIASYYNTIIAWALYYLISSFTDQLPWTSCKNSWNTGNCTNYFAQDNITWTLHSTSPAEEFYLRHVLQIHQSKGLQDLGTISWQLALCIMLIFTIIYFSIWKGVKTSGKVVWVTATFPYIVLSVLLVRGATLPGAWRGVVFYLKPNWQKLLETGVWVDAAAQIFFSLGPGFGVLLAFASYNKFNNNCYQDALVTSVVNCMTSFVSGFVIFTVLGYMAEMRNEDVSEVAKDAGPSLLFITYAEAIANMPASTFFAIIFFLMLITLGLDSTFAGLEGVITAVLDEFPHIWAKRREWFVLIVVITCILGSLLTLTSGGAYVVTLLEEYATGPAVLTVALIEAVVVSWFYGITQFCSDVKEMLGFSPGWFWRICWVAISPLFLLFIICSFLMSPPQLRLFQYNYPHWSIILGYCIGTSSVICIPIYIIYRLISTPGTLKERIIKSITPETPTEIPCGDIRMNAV

With `CCCOc1ccc(CCN2CCN(CCCc3ccccc3)CC2)cc1OC` [compound 1, 1-(3-methoxy-4-propoxyphenethyl)-4-(3-phenylpropyl)piperazine] the Ki [1] was roughly 2000 nM.

For `c1ccc(CCCN2CCN(CCc3ccc4c(c3)OCO4)CC2)cc1` [compound 7, 1-(3,4-methylenedioxyphenethyl)-4-(3-phenylpropyl)piperazine], the Ki [1] was roughly 2000 nM.

In the case of `COc1ccc(CCN2CCN(CCCc3ccccc3)CC2)cc1OC` [SA4503, 1-[2-(3,4-dimethoxyphenyl)ethyl]-4-(3-phenylpropyl)piperazine], the Ki [1] is reported as 12700 ± 832 nM, the inhibition at 10 µM [1] is reported as 23% and the “higher affinity for SERT over DAT” value [2] is reported as 16 fold. The Ki [3] was 50 nM.

For `COc1cc(CCN2CCN(CCCc3ccccc3)CC2)ccc1OCCF` [FE-SA4503], the inhibition at 10 µM [1] was 19%.

In the case of `Fc1ccc(C(OCCN2CCN(CCCc3ccccc3)CC2)c2ccc(F)cc2)cc1` [GBR 12909], the “affinity for the norepinephrine transporter” value [4] is given as greater than 1000 nM and the Ki (σ1 receptors) is given as 50.8 nM.

With `COc1cc(CCN2CCN(CCCc3ccccc3)CC2)ccc1OCc1ccccc1` [compound 4, 1-(4-(benzyloxy)-3-methoxyphenethyl)-4-(3-phenylpropyl)piperazine] the “higher DAT affinity than SA4503” value ([1]; relative to parent SA4503) was “over 100 fold”.

— article PMC4274187 (Bioorganic & medicinal chemistry, 2014)
